According to PubChem BioAssay (NCI):
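Where inhibition never reached the appropriate level, the endpoint shown equals the highest concentration tested. Otherwise, values were interpolated linearly from a five-concentration, 48-hour dose response in 96-well plates. At the GI50, growth is halved. At the TGI there is no net growth.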

Key:
Test in all cases: NCI anticancer screen, dose series, 48 h
[1] = system: SK-MEL-28 melanoma
[2] = system: SW-620 colon
[3] = system: HCT-15 colon
[4] = system: 786-0 renal
[5] = system: LOX IMVI melanoma
[6] = system: SK-OV-3 ovarian
[7] = system: NCI-H460 lung
[8] = system: EKVX NSCLC
[9] = system: HCT-116 colon
[10] = system: HOP-92 NSCLC

Compound: CC/C(Cc1ccccc1)=C(\c1ccc(OCCN2CCCCCC2)cc1)c1ccc(OC(=O)NCc2ccccc2)cc1
- GI50 [1]: 1.44 µM
- TGI [1]: 5.17 µM
- GI50 [2]: 1.16 µM
- TGI [2]: 2.49 µM
- GI50 [3]: 1.07 µM
- TGI [3]: 2.94 µM
- GI50 [4]: 1.38 µM
- TGI [4]: 4.43 µM
- GI50 [5]: 0.924 µM
- TGI [5]: 1.75 µM
- GI50 [6]: 7.59 µM
- TGI [6]: 15.2 µM
- GI50 [7]: 0.966 µM
- TGI [7]: 1.83 µM
- GI50 [8]: 6.29 µM
- TGI [8]: 14.1 µM
- GI50 [9]: 0.895 µM
- TGI [9]: 1.63 µM
- GI50 [10]: 3 µM
- TGI [10]: 9.93 µM

Compound: COc1ccc(C#Cc2ccccc2C#CCCCCO)cc1
- GI50 [1]: 12.2 µM
- TGI [1]: 24.8 µM
- GI50 [2]: 17.8 µM
- TGI [2]: 34.8 µM
- GI50 [3]: 16.3 µM
- TGI [3]: 29.9 µM
- GI50 [4]: 22.8 µM
- TGI [4]: 45.9 µM
- GI50 [5]: 16.9 µM
- TGI [5]: 30.6 µM
- GI50 [6]: 19.9 µM
- TGI [6]: 39.7 µM
- GI50 [7]: 19.4 µM
- TGI [7]: 39.9 µM
- GI50 [8]: 23.6 µM
- TGI [8]: 54 µM
- GI50 [9]: 22.5 µM
- TGI [9]: 43.7 µM
- GI50 [10]: 23.5 µM
- TGI [10]: 47.7 µM

Compound: CN1C(=O)c2c(ccc3c2OCO3)C2C(O)Cc3cc4c(cc3C21)OCO4 (configuration not stated)
- TGI [1]: > 100 µM
- TGI [2]: > 100 µM
- TGI [3]: 24.7 µM
- TGI [4]: 37.3 µM
- TGI [5]: > 100 µM
- TGI [6]: 8.37 µM
- TGI [7]: > 100 µM
- TGI [8]: 60.9 µM
- TGI [9]: > 100 µM
- TGI [10]: > 100 µM

Compound: CC1=CC2CC(C)=C(CC[C@]3(C)CC[C@H]([C@@H](C)C(=O)O)OO3)C(C)(C)C2CC1 (some centres not stated)
- TGI [1]: 3.1 µM
- TGI [2]: 0.354 µM
- TGI [3]: 2 µM
- TGI [4]: 4.78 µM
- TGI [5]: 0.207 µM
- TGI [6]: 3.68 µM
- TGI [7]: 0.393 µM
- TGI [8]: 3.64 µM
- TGI [9]: 0.943 µM
- TGI [10]: 0.369 µM

Compound: O=[N+]([O-])c1ccc(Nc2ccccc2-c2ccccc2)c2nonc12
- GI50 [1]: 17.2 µM
- TGI [1]: 45.3 µM
- GI50 [2]: 18 µM
- TGI [2]: 44.8 µM
- GI50 [3]: 13.2 µM
- TGI [3]: 28.2 µM
- GI50 [4]: 12.6 µM
- TGI [4]: 32.6 µM
- GI50 [5]: 12.8 µM
- TGI [5]: 26.6 µM
- GI50 [6]: 22 µM
- TGI [6]: > 75.7 µM
- GI50 [7]: 13.1 µM
- TGI [7]: 42.3 µM
- GI50 [8]: 15.5 µM
- TGI [8]: 64.1 µM
- GI50 [9]: 13.9 µM
- TGI [9]: 31.6 µM
- GI50 [10]: 3.15 µM
- TGI [10]: 23.4 µM

Compound: CCSc1nnc2c(-c3ccccc3)n[nH]c2n1
- TGI [1]: > 100 µM
- TGI [2]: > 100 µM
- TGI [3]: > 100 µM
- TGI [4]: > 100 µM
- TGI [5]: > 100 µM
- TGI [6]: > 100 µM
- TGI [7]: > 100 µM
- TGI [8]: > 100 µM
- TGI [9]: > 100 µM
- TGI [10]: > 100 µM

Compound: COc1cccc2c1C(=O)c1c(O)c3c(c(O)c1C2=O)CC(O)(C(C)=O)CC3OC1CC(N)C(O)C(C)O1 (configuration not stated)
- GI50 [1]: 0.104 µg/mL
- TGI [1]: 0.607 µg/mL
- TGI [2]: 0.47 µg/mL
- GI50 [3]: 0.824 µg/mL
- TGI [3]: 7.86 µg/mL
- GI50 [4]: 0.0177 µg/mL
- TGI [4]: 0.0836 µg/mL
- GI50 [5]: 0.0166 µg/mL
- TGI [5]: 1.57 µg/mL
- GI50 [6]: 0.0312 µg/mL
- TGI [6]: 2.68 µg/mL
- TGI [7]: 2.02 µg/mL
- GI50 [8]: 0.191 µg/mL
- TGI [8]: 2.66 µg/mL
- TGI [9]: 2.06 µg/mL
- GI50 [10]: 0.0155 µg/mL
- TGI [10]: 0.413 µg/mL

Compound: NS(=O)(=O)c1ccc(NC(=O)c2ccc(NC3=C(Cl)C(=O)N(Cc4ccccc4)C3=O)cc2)cc1
- GI50 [1]: 4.16 µM
- TGI [1]: > 100 µM
- GI50 [2]: 2.69 µM
- TGI [2]: 7.78 µM
- GI50 [3]: 13.7 µM
- TGI [3]: 69.4 µM
- GI50 [4]: 3.38 µM
- TGI [4]: 12.5 µM
- GI50 [5]: 3.35 µM
- TGI [5]: 39 µM
- GI50 [6]: 41 µM
- TGI [6]: > 100 µM
- GI50 [7]: 5.07 µM
- TGI [7]: > 100 µM
- GI50 [8]: 61.9 µM
- TGI [8]: > 100 µM
- GI50 [9]: 2.68 µM
- TGI [9]: 10.3 µM
- GI50 [10]: 10.9 µM
- TGI [10]: 31.3 µM

Compound: Cc1cc(C)nc(NC(N)=NCCc2ccccc2)n1
- GI50 [1]: 3.59 µM
- TGI [1]: 33.6 µM
- GI50 [2]: 3.51 µM
- TGI [2]: > 100 µM
- GI50 [3]: 5.09 µM
- TGI [3]: > 100 µM
- GI50 [4]: 4.86 µM
- TGI [4]: > 100 µM
- GI50 [5]: 2.03 µM
- TGI [5]: 44.3 µM
- GI50 [6]: 2.65 µM
- TGI [6]: 28.9 µM
- GI50 [7]: 3.43 µM
- TGI [7]: > 100 µM
- GI50 [8]: 3.66 µM
- TGI [8]: 89.9 µM
- GI50 [9]: 2.78 µM
- TGI [9]: > 100 µM
- GI50 [10]: 3.97 µM
- TGI [10]: 73.1 µM
